Like-named read-outs stand apart in the source and are kept apart here.
Key:
[1] = target: T1, RORγ ligand binding domain (LBD) (Homo sapiens, UniProt P51449); experiment: TR-FRET Activity Assay (ligand sensing, RORγ-LBD / coactivator peptide interaction, LANCE); format: biochemical
T1 construct: made in house; host or cells: E. coli BL-21 (BL3), vector pDEST15
T1 sequence (P51449 269-508 limits assumed): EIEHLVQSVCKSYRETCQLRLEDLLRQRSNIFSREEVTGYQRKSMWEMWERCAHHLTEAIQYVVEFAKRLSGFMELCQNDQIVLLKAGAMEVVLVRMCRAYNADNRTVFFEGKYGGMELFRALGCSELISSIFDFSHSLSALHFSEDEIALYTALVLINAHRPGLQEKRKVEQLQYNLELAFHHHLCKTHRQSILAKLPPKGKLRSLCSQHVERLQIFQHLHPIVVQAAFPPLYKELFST

RORγ = target: T2, RORγ (UniProt P51449); experiment: RORγ Gal4 Reporter Gene Assay in 293T cells (firefly and renilla luciferase); format: cell-based, human
T2 sequence (P51449 1-518): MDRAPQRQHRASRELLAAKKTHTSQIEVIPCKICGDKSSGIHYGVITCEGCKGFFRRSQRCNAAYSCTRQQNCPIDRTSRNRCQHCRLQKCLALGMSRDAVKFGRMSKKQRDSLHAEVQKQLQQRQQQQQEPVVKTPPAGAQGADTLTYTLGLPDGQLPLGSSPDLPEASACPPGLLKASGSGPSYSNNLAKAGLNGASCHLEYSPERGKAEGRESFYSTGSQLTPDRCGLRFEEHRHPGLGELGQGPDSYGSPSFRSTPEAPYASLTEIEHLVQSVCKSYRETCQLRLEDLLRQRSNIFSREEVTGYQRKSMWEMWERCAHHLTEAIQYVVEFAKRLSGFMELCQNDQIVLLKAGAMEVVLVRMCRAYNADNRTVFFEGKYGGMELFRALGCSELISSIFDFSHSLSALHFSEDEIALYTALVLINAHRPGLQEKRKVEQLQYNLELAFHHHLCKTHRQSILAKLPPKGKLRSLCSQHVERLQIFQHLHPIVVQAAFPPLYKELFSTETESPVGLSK

[2] = first value of the cell FRET/FF/REN, TR-FRET activity assay, read-out: pIC50 (FRET) (converted)
[3] = second value of the cell, Gal4 reporter gene assay in 293T cells, firefly luciferase
[4] = third value of the cell, Gal4 reporter gene assay in 293T cells, renilla normalised luciferase

| SMILES | IC50 [1] [nM] | pIC50 (FF) (RORγ) | pIC50 (REN) (RORγ) | IC50 [1, 2] [nM] | pIC50 (FF) (RORγ; [3]) | pIC50 (REN) (RORγ; [4]) |
| --- | --- | --- | --- | --- | --- | --- |
| Cc1c(C(=O)N(C)CC2(O)CCOCC2)cc(-c2cc(C(C)(C)C)c3c(c2)C2(CCO3)CC2)n1CC1CCCCC1 [17/39] | 398 | 6.4/6.9/6.8 | 6.4/6.9/6.8 |  |  |  |
| Cc1c(C(=O)NCC(C)(C)C(=O)O)cc(-c2ccc(S(=O)(=O)NC(C)(C)C)c(C(F)(F)F)c2)n1CC1CCCCC1 [17/200] |  |  |  | 501 | 6.9 | 6.9 |
| Cc1c(C(N)=O)cc(-c2cc(C(C)(C)C)c3c(c2)C2(CCO3)CC2)n1CC1CCCCC1 [1/105] | 251 | 6.6/6.5/6.5 | 6.6/6.5/6.5 |  |  |  |
| Cc1c(C(=O)NCC(C)(C)NC(=O)CC2SC(=O)NC2=O)cc(-c2cc(C(C)(C)C)c3c(c2)C2(CCO3)CC2)n1CC1CCCCC1 (stereo not drawn) [17/35] |  |  |  | 1580 | 6.4 | 6.3 |
| Cc1c(C(=O)NCC2(C)COC2)cc(-c2cc(S(=O)(=O)N3CCCCC3)c3ccccn23)n1CC1CCCCC1 [Example 8, 1-(Cyclohexylmethyl)-2-methyl-N-((3-methyloxetan-3-yl)methyl)-5-(1-(piperidin-1-ylsulfonyl)indolizin-3-yl)-1H-pyrrole-3-carboxamide] |  |  |  | 3980 | 7.2 | 7.2 |
| COCC1(CNC(=O)c2cc(-c3cc(C(C)(C)C)cc(C4(C)CC4)c3)n(CC3CCCCC3)c2C)COC1 [17/47] | 200 | 6.7/7.3/7.4 | 6.7/7.3/7.4 |  |  |  |
| Cc1c(C(=O)NC2CCOCC2)cc(-c2ccc(S(=O)(=O)NC(C)(C)C)c(C(F)(F)F)c2)n1CC1CCCCC1 [17/97] |  |  |  | 126 | 8.0 | 8.0 |
| Cc1c(C(=O)N[C@H]2C[C@H](C(=O)O)C2)cc(-c2ccc(-c3nnc(C(C)(C)C)o3)c(C(C)(C)C)c2)n1CC1CCCCC1 [17/252] |  |  |  | 1580 | 6.5 | 6.6 |
| Cc1c(C(=O)N[C@H]2C[C@H](C(=O)O)C2)cc(-c2cc(C(=O)N[C@@H](C)C(F)(F)F)cc(C3(C)CC3)c2)n1CC1CCCCC1 [17/358] |  |  |  | 1000 | 6.3 | 6.2 |
| Cc1c(C(=O)NCC2(C)COC2)cc(-c2cc(C(C)(C)C)cc(C3(C)CC3)c2)n1CC1CCCCC1 [1/86] |  |  |  | 158 | 7.6 | 7.6 |
| Cc1c(C(=O)NCC(C)(C)O)cc(-c2cc(C(=O)NC(C)C)cc(C3(C)CC3)c2)n1CC1CCCCC1 [1/112] |  |  |  | 501 | 7.1 | 7.1 |
| Cc1c(C(=O)NC23CCC(C(=O)O)(CC2)C3)cc(-c2cc(C(C)(C)O)cc(C3(C)CC3)c2)n1CC1CCCCC1 [17/301] |  |  |  | 2000 | 7.6 | 7.6 |
| Cc1c(C(=O)NCC(C)(C)C(=O)NS(C)(=O)=O)cc(-c2cc(C(C)(C)C)c3c(c2)C2(CCO3)CC2)n1CC1CCCCC1 [17/26] |  |  |  | 1580 | 7.3 | 7.3 |
| Cc1c(C(=O)NCCC(C)(C)C(=O)O)cc(-c2ccc(-c3ccnn3C(C)C)c(C(C)(C)C)c2)n1CC1CCCCC1 [26/6] |  |  |  | 398 | 7.7 | 7.9 |
| COCCS(=O)(=O)NC(C)(C)CNC(=O)c1cc(-c2cc(C(C)(C)C)c3c(c2)C2(CCO3)CC2)n(CC2CCCCC2)c1C [17/32] | 200 | 6.7/7.2/7.2 | 6.7/7.2/7.2 |  |  |  |
| Cc1c(C(=O)NC2COC2)cc(-c2cc(C(C)(C)C)cc(C(F)(F)F)c2)n1CC1CCCCC1 [1/78] | 316 | 6.5/7.1/7.1 | 6.5/7.1/7.1 |  |  |  |
| Cc1c(C(=O)NCC2(C(N)=O)CCOCC2)cc(-c2cc(C(C)(C)O)cc(C3(C)CC3)c2)n1CC1CCCCC1 [17/318] |  |  |  | 2000 | 7.7 | 7.6 |
| Cc1c(C(=O)NC2CCOCC2)cc(-c2cc3c(c(C(C)(C)C)c2)OCCC3F)n1CC1CCCCC1 (stereo not drawn) [18/4] |  |  |  | 794 | 6.3 | 6.5 |
| COCC(=O)NC(C)(C)CNC(=O)c1cc(-c2cc(C(C)(C)C)cc(C3(C)CC3)c2)n(CC2CCCCC2)c1C [17/122] | 398 | 6.4/7.6/7.5 | 6.4/7.6/7.5 |  |  |  |
| COC(=O)[C@H]1C[C@H](NC(=O)c2cc(-c3cc(C(C)(C)C)cc(C4(C)CC4)c3)n(CC3CCCCC3)c2F)C1 [20/2] |  |  |  | 316 | 7.0 | 7.2 |

| SMILES | IC50 [1] [nM] | pIC50 (FF) (RORγ) | pIC50 (REN) (RORγ) | IC50 [1, 2] [nM] | pIC50 (FF) (RORγ; [3]) | pIC50 (REN) (RORγ; [4]) |
| --- | --- | --- | --- | --- | --- | --- |
| Cc1c(C(=O)NC2CCOCC2)cc(-c2cc(C(=O)NC(C)C)cc(C(C)(C)O)c2)n1CC1CCCCC1 [17/323] |  |  |  | 7940 | 5.6 | 5.7 |
| Cc1c(C(=O)N[C@H]2C[C@H](C(=O)O)C2)cc(-c2ccc(S(=O)(=O)NC(C)(C)C)c3sccc23)n1CC1CCCCC1 [17/184] |  |  |  | 794 | 6.9 | 7.1 |
| Cc1c(C(=O)NC2CC23CCOCC3)cc(-c2ccc(S(=O)(=O)NC(C)(C)C)c(C(C)(C)C)c2)n1CC1CCCCC1 (stereo not drawn) [17/207] |  |  |  | 501 | 7.9 | 8.0 |
| Cc1c(C(=O)NCC2(O)CCOCC2)cc(-c2ccc(S(=O)(=O)NC(C)(C)C)c3ccccc23)n1CC1CCCCC1 [17/239] |  |  |  | 1000 | 7.9 | 8.1 |
| Cc1c(C(=O)NCCC[S+](C)[O-])cc(-c2cc(C(C)(C)C)c3c(c2)C2(CCO3)CC2)n1CC1CCCCC1 (stereo not drawn) [17/2] | 1000 | 6.0/6.6/6.5 | 6.0/6.6/6.5 |  |  |  |
| Cc1c(C(=O)N[C@@H]2CCCOC2)cc(-c2ccc(S(=O)(=O)NC(C)(C)C)c(C(F)(F)F)c2)n1CC1CCCCC1 [17/138] |  |  |  | 200 | 7.1 | 7.3 |
| Cc1c(C(=O)NC2COC2)cc(-c2ccc(C(=O)NCC(C)(C)C)c(C(C)(C)C)c2)n1CC1CCCCC1 [1/32] |  |  |  | 1580 | 6.4 | 6.2 |
| Cc1c(C(=O)N[C@H]2C[C@H](C(=O)O)C2)cc(-c2cc(C(C)(C)C)nc(C(C)(C)C)c2)n1CC1CCCCC1 [17/262] | 631 | 6.2/7.6/7.8 | 6.2/7.6/7.8 |  |  |  |
| Cc1c(C(=O)N[C@H]2C[C@H](C(=O)O)C2)cc(-c2cc(C(=O)N[C@H](C)C(F)(F)F)cc(C3(C)CC3)c2)n1CC1CCCCC1 [17/359] |  |  |  | 3160 | 7.4 | 7.4 |
| Cc1c(C(=O)NCC(C)(C)C(=O)NCCCO)cc(-c2cc(C(C)(C)C)c3c(c2)C2(CCO3)CC2)n1CC1CCCCC1 [11/6] |  |  |  | 251 | 8.0 | 8.2 |
| Cc1c(C(=O)NCC(C)(C)O)cc(-c2cc(C(C)(C)C)nc3ccccc23)n1CC1CCCCC1 [17/366] |  |  |  | 5010 | 6.6 | 6.3 |
| Cc1c(C(=O)NCC(C)(C)NS(=O)(=O)C2CC2)cc(-c2cc(C(C)(C)C)c3c(c2)C2(CCO3)CC2)n1CC1CCCCC1 [17/33] |  |  |  | 631 | 7.1 | 7.2 |
| Cc1c(C(=O)NCC2CCN(S(C)(=O)=O)CC2)cc(-c2cc(C(C)(C)C)cc(C3(C)CC3)c2)n1CC1CCCCC1 [17/345] |  |  |  | 316 | 7.3 | 7.4 |
| CC(C)(C)NS(=O)(=O)c1ccc(-c2cc(C(=O)N[C@H]3C[C@H](C(=O)O)C3)c(F)n2CC2CCCCC2)c2ccccc12 [20/8] |  |  |  | 1000 | 7.0 | 7.0 |
| Cc1c(C(=O)NC2(C)CCOCC2)cc(-c2ccc(S(=O)(=O)NC(C)(C)C)c(C(F)(F)F)c2)n1CC1CCCCC1 [17/209] | 200 | 6.7/7.3/7.6 | 6.7/7.3/7.6 |  |  |  |
| Cc1c(C(=O)NCC(O)(C(F)(F)F)C(F)(F)F)cc(-c2cc(C(C)(C)C)cc(C(C)(C)C)c2)n1CC1CCCCC1 [1/113] |  |  |  | 3980 | < 4.7 | < 4.7 |
| Cc1c(C(=O)NCC(C)(C)NS(C)(=O)=O)cc(-c2cc(C(C)(C)C)c3c(c2)C2(CCO3)CC2)n1CC1CCCCC1 [1/103] |  |  |  | 398 | 7.3 | 7.3 |
| Cc1c(C(=O)NCC(C)(C)C(=O)NCCCCO)cc(-c2cc(C(C)(C)C)c3c(c2)C2(CCO3)CC2)n1CC1CCCCC1 [11/7] |  |  |  | 251 | 7.1 | 7.2 |
| Cc1c(C(=O)NC2CCOCC2)cc(-c2ccc(S(=O)(=O)NC(C)(C)C)c(C#N)c2)n1CC1CCCCC1 [17/158] |  |  |  | 794 | 6.1 | 6.2 |
| Cc1c(C(=O)NC2COC2)cc(-c2ccc(S(=O)(=O)NC(C)(C)C)c(C(C)(C)C)c2)n1CC1CCCCC1 [9/4] |  |  |  | 631 | 7.1 | 7.2 |

Reference: patent publication US9815851B2, “Pyrrolo carboxamides as modulators of orphan nuclear receptor RAR-related orphan receptor-gamma (RORγ, NR1F3) activity and for the treatment of chronic inflammatory and autoimmune diseases” (PHENEX PHARMACEUTICALS AG, priority 2011, dated 2017)
